Assay results from patent publication US20190000850A1, “COMBINATION CANCER THERAPY” (The Regents of the University of California, priority 2015, published 2019).

Columns and labels:
[1] = cited from earlier work
[2] = system: Jurkat cells; experiment: dGTP/DNA-G biosynthesis with [^13C6]glucose and [^15N5]dG labeling; type: cell-based
Procedure: Another approach to study dGTP/DNA-G biosynthetic pathways is through anticancer therapy Forodesine (BCX-1777). The precursor for DNA-G, dGTP, can be produced from glucose via the de novo pathway and from salvage of extracellular dG either as nucleobase and/or intact nucleoside (FIG. 42A). […] Jurkat cells were labeled for 18 h in the following conditions: untreated, PNP inhibitor (BCX-1777) and DI-82, a specific dCK inhibitor. The labeled media contained […] [U-^13C6]glucose to represent the de novo contribution and 5 μM [^15N5]dG to represent salvage pathways. At the end of the incubation time, [^15N5]dG decreased nearly three orders of magnitude in the culture media from the untreated Jurkat cells, reflecting the high PNP activity in these leukemia cells (FIG. 42B). In contrast, the culture media from BCX-1777 treated cells contained 1.8 μM [^15N5]dG, indicative of reduced dG catabolism.
(§1) Cells were transferred into RPMI-1640 without glucose and supplemented with 10% dialyzed FBS (Gibco) containing any of the following labeled substrates (Cambridge Isotopes): precursors for de novo [U-^13C6]glucose (Sigma-Aldrich) at 11 mM; precursors for purine salvage [U-^13C10,^15N5]dA (Cambridge Isotopes), [^15N5]dA (Cambridge Isotopes), [^15N5]dG (Cambridge Isotopes), [U-^13C5,^15N4]Hx (Cambridge Isotopes) at 5 μM or as indicated in the text; and precursors for pyrimidine salvage: [U-^13C9,^15N3]dC (Silantes) and [U-^13C10,^15N2]dT (Cambridge Isotopes) at 5 μM. The cells were incubated for 18 h or as indicated in the text before samples collection and processing.
(§2) Culture medium was collected 20 μL at the indicated time points. Stock solutions (10 mM) of [U-^13C10,^15N5]dA, and [^15N3]dC (Cambridge Isotope Laboratories) were prepared individually in dimethyl sulfoxide (DMSO), and stored at −20° C. before use as internal standards. The internal standards were diluted to 20 nM in methanol to generate internal standard solution. Calibration standards were prepared by spiking working stock solutions of [U-^13C10,^15N5]dA and [U-^13C9,^15N3]dC blank media to give concentrations in the 10 nM-10 μM range. Each 20 μL calibration standard sample was mixed with 60 μL of internal standard solution, mixed (30 s) and centrifuged (15,000 g, 10 min, 4° C.) and 60 μL of supernatant were transferred into a clean mass spec vial for LC-MS/MS-MRM analysis. Media samples were processed similarly and in parallel to the calibration standard samples.
Cells were collected into microcentrifuge tube and centrifuged (450×g, 4 min, 4° C.). The supernatant was carefully aspirated. The cells were washed twice by the addition of 1 mL of cold PBS and centrifugation (450×g, 4 min 4° C.). PBS washes were aspirated. […]

[3] = molecular target: T1, Chk1 (Homo sapiens, UniProt O14757); details: read-out: IC50 against primary target (Chk1); cited from earlier work
T1 sequence (O14757 1-476): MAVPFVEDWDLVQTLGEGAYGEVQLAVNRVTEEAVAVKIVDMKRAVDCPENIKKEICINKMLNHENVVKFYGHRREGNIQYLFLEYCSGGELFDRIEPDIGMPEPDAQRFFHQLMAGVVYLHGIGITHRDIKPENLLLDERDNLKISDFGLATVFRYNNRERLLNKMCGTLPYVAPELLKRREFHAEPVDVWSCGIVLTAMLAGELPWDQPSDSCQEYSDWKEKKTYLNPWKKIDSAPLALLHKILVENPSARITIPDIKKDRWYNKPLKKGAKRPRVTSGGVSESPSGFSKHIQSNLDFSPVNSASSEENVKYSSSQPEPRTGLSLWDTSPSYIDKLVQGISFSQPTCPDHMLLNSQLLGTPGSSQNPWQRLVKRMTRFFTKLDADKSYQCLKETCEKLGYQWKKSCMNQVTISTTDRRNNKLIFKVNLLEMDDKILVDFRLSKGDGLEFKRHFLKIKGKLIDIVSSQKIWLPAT

[4] = Solubility study in phosphate buffer solution; type: physicochemical; details: aqueous buffer
[5] = system: Jurkat cells; experiment: dATP/DNA-A biosynthesis with [^13C6]glucose and [^15N5]dA labeling; type: cell-based
Procedure: The precursor for DNA-A, dATP, can be produced from glucose via the de novo pathway and from salvage of extracellular dA either as nucleobase and/or intact nucleoside (FIG. 41A). […] Pharmacological perturbations were used to investigate the contributions of each dA salvage pathway (FIG. 41A). Jurkat cells were labeled for 18 h in the following conditions: untreated, ADA inhibitor Pentostatin (dCF) and DI-82, a specific dCK inhibitor. The labeled media contained […] [U-^13C6]glucose to represent the de novo contribution and 5 μM [^15N5]dA to represent salvage pathways. At the end of the incubation time, [^15N5]dA was undetectable in the culture media from the untreated Jurkat cells, reflecting the high ADA activity in these leukemia cells (FIG. 41B). In contrast, the culture media from dCF treated cells contained 1.5 μM [^15N5]dA, indicative of reduced dA catabolism.
as §1, §2
Cells were collected into microcentrifuge tube and centrifuged (450×g, 4 min, 4° C.). The supernatant was carefully aspirated. The cells were washed twice by the addition of 1 mL of cold PBS and centrifugation (450×g, 4 min 4° C.). PBS washes were aspirated. Thereafter, cells were lysed in 40 μL of 70% methanol/water (v/v), vortexed (30 s) and incubated on ice for 10 min. […]

[6] = system: CCRF-CEM T-ALL cells; experiment: EdU pulse assay of cell cycle progression after release from G1 arrest; type: cell-based; details: synchronized CEM cells released from G1
Procedure: Following release from G1, cells progress to early, mid and late S phase (defined as S1, S2 and S3, respectively) and G2/M. By 18 h following release in drug-free media, 42.5% of cells progressed to S3. […] Thus, dCK represents a resistance mechanism to ATR inhibition.
Cells were treated with a CDK4/6 inhibitor, PD-0332991 (Selleckchem) for 18 h to arrest in G1 phase. Subsequently, cells were washed and released into fresh media containing 10% FBS to monitor the progression of synchronized cells throughout the cell cycle by flow cytometry analysis.
For measuring cell cycle progression of synchronous population of cells, cells were first arrested in G1 phase, then washed and released in treated media. Before collecting and fixing cells at various time points, cells were pulse-labeled with 10 μM EdU for 1 h, and then click-labeled with azide-Alexa Fluor 647 (Invitrogen; Click-iT EdU Flow cytometry kit) according to manufacturer's protocol. Total DNA content was assessed by staining with FxCycle-Violet (Invitrogen) at 1 μg/mL final concentration in PBS containing 2% FBS.

[7] = system: CEM cells; experiment: Mass spectrometric assay of de novo (RNR) and salvage (dCK) contribution to dCTP and DNA-C; type: cell-based; details: G1 released CEM cells
Procedure: To analyze the differential utilization of de novo and nucleotide biosynthetic salvage pathways, cultured cells were incubated with stable isotope labeled DNA precursors. […] Extracted dNTP and DNA were analyzed in a triple quadrupole mass spectrometer (QQQ) using multiple reaction monitoring (MRM). The first (Q1) and third (Q3) quadrupoles function as mass filters while the second (Q2) quadrupole serves as a collision chamber. […] In Q2, the glycosidic bond of the selected dC is cleaved, releasing a protonated nucleobase (NB) fragment and a neutral deoxyribose (dR) molecule. The m/z specific NB fragments from dC is separated in Q3 and detected to generate ion chromatograms. […] Each identifier corresponded to a specific biosynthetic pathway and is defined as [x;y], where “x” is the number of heavy isotope-labeled atoms in NB and “y” is the number of heavy isotope atoms in dR. […] According to current biochemical maps of nucleotide metabolism, the [7;5] identifier can only arise from salvaging [U-^13C9,^15N3]dC into newly synthesized DNA. In contrast, a dC with a [0,5] identifier is a product of the de novo pathway. The ratio of the peak areas in the ion chromatograms of salvage [7;5] and de novo [0;5] identifiers describes the relative contributions of the two biosynthetic routes to the dCTP pool used for DNA replication.
Genomic DNA was extracted using the Quick-gDNA MiniPrep kit (Zymo Research, D3021) and hydrolyzed to nucleosides using the DNA Degradase Plus kit (Zymo Research, E2021) following manufacturer-supplied instructions. In the final step of DNA extraction, 50 μL of water was used to elute the DNA. A nuclease premix solution was prepared by mixing 10× buffer, DNA degradase Plus™ and water in the ratio of 2.5/1/1.5 (v/v/v). DNA hydrolysis reaction was prepared in mass spec vials by mixing 5 μL of the nuclease premix solution (5 U of enzyme) and 20 μL of eluted genomic DNA, the total volume becomes 25 μL. The samples were tapped and flicked downward prior to overnight before incubation at 37° C.
Cells were collected into microcentrifuge tube and centrifuged (450×g, 4 min, 4° C.). The supernatant was carefully aspirated. The cells were washed twice by the addition of 1 mL of cold PBS and centrifugation (450×g, 4 min 4° C.). PBS washes were aspirated. Thereafter, cells were lysed in 40 μL of 70% methanol/water (v/v), vortexed (30 s) and incubated on ice for 10 min. Then 40 μL of chloroform (Fisher) was added, vortexed (30 s) and incubated on ice for another 10 min. The samples were then centrifuged at max speed for 10 min at 4° C. Finally, the supernatant was transferred (≈25 μL) into a mass spec vial.
For genomic DNA and media analysis, an aliquot of DNA hydrolysis or media samples (20 μL) was injected directly onto a porous graphitic carbon column (Thermo Fisher Scientific Hypercarb, 100×2.1 mm, 5 μm particle size) equilibrated in solvent A (water/acetonitrile/formic acid, 95/5/0.2, v/v/v) and eluted (200 μL/min) with an increasing concentration of solvent B (acetonitrile/water/formic acid, 90/10/0.2, v/v/v): min/% B/flow rate (μL/min); 0/0/200, 5/0/200, 10/15/200, 20/15/200, 21/40/200, 25/50/200, 26/100/700, 30/100/700, 3I/O/700, 34/0/700, 35/0/200).

[8] = system: p185^BCR-ABLArf^−/− pre-B cells; experiment: dCTP pool and DNA-C measurement with [U-^13C9,^15N3]dC and [U-^13C6]glucose; type: cell-based, mouse; details: 3, 6, 9 and 12 h treatment
Description: Therefore, p185^BCR-ABLArf^−/− pre-B cells were labeled with [U-^13C9,^15N3]dC and [U-^13C6]glucose to measure the contribution of salvage pathway via dCK and de novo pathway via RNR, respectively.

[9] = system: leukemia cell growth; experiment: IC50 (cytotoxicity assay) of RNR inhibitors, Table 1; type: cell-based
Procedure: Cells were plated in a 384-well plate (1,000 cells/well for suspension cell lines and 500 cells/well for adherent cell lines in 30 μL). For suspension cell lines, the plate was incubated in 37° C. for 1 h to let the cells settle. For adherent cell lines, the plate was incubated overnight to allow the cells to seed. During incubation, drugs were diluted to desired concentration by serial dilution, vehicle condition was created by adding equivalent amount of DMSO. After incubation, 10 μL of diluted drugs were added to each well, and incubated for 72 h. After incubation, Cell TiterGlo reagent was added to each well according to manufacturer's instructions (Promega, CellTiter-Glo® Luminescent Cell Viability Assay). The plates were shaken for 2 min and incubated in dark for 8 min. Luminescence readings were obtained with luminometer (Molecular devices, SpectraMax).

[10] = molecular target: ATR (Homo sapiens, UniProt Q13535); details: read-out: IC50 against primary target (ATR); cited from earlier work
Chain of ATR (Q13535 whole entry): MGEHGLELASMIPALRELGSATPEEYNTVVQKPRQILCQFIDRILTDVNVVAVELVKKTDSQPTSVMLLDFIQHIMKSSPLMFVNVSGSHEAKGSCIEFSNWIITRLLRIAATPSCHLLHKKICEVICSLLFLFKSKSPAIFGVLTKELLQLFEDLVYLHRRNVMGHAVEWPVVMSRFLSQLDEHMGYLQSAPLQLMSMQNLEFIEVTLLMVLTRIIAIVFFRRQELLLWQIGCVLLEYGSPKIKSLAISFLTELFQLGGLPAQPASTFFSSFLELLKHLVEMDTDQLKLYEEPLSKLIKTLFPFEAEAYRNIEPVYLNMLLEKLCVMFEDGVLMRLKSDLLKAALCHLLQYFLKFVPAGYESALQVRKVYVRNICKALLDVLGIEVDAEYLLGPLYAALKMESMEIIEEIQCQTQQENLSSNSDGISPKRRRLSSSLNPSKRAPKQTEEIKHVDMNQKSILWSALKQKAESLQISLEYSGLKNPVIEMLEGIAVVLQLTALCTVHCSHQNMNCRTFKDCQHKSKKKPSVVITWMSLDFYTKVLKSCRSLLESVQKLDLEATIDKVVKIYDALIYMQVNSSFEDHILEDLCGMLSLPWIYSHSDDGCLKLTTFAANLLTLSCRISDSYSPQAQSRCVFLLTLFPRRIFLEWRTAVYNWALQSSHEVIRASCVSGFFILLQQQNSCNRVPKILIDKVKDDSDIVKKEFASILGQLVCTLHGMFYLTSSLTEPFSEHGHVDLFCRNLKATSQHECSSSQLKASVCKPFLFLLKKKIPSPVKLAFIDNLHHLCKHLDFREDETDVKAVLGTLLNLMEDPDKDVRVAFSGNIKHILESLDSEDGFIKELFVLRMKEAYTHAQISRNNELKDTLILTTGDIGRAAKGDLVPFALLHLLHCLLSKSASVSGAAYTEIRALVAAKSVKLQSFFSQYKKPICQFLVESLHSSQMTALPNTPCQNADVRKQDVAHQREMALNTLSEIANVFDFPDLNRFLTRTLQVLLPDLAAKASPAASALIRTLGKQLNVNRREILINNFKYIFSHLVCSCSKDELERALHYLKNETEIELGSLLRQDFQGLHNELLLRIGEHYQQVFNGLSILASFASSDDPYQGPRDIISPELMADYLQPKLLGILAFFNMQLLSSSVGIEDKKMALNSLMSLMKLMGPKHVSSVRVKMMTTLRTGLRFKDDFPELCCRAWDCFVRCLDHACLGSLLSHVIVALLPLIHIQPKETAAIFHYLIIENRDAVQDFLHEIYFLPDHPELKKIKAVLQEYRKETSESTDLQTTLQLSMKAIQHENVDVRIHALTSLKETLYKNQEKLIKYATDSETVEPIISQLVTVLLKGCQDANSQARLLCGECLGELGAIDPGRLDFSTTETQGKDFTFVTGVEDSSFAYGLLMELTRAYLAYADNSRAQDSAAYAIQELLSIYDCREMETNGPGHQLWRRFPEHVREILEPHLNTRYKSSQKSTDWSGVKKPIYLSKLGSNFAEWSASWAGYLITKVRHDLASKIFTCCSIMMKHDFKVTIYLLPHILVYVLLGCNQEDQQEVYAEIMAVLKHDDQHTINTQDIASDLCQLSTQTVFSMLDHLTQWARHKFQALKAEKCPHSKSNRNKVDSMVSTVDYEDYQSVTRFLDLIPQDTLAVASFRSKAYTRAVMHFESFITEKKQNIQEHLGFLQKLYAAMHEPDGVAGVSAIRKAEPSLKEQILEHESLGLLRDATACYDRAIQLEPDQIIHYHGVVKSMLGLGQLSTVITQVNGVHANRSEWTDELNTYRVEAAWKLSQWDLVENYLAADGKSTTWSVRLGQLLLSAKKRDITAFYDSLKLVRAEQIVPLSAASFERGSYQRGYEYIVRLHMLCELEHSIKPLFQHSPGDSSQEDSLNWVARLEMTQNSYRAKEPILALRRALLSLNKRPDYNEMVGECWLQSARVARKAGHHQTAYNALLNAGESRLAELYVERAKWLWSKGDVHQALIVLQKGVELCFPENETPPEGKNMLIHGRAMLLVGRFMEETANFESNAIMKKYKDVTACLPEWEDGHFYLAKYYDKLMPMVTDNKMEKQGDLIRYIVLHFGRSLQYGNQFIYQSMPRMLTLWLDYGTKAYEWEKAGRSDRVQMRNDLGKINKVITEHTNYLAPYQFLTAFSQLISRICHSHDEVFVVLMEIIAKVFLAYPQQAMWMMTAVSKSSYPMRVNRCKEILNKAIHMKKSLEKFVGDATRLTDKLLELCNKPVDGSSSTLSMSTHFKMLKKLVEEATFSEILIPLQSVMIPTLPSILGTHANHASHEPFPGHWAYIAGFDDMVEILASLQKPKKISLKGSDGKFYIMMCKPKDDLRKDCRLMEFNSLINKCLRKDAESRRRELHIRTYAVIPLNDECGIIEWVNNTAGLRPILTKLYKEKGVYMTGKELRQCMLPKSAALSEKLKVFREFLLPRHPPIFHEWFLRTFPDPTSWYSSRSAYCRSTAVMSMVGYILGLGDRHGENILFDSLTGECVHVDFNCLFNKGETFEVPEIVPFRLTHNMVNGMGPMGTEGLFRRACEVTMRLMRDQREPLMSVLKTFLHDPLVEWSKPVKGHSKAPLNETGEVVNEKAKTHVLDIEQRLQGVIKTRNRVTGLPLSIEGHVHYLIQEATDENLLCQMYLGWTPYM
Chain of ATR (Q8WXE1 whole entry partner): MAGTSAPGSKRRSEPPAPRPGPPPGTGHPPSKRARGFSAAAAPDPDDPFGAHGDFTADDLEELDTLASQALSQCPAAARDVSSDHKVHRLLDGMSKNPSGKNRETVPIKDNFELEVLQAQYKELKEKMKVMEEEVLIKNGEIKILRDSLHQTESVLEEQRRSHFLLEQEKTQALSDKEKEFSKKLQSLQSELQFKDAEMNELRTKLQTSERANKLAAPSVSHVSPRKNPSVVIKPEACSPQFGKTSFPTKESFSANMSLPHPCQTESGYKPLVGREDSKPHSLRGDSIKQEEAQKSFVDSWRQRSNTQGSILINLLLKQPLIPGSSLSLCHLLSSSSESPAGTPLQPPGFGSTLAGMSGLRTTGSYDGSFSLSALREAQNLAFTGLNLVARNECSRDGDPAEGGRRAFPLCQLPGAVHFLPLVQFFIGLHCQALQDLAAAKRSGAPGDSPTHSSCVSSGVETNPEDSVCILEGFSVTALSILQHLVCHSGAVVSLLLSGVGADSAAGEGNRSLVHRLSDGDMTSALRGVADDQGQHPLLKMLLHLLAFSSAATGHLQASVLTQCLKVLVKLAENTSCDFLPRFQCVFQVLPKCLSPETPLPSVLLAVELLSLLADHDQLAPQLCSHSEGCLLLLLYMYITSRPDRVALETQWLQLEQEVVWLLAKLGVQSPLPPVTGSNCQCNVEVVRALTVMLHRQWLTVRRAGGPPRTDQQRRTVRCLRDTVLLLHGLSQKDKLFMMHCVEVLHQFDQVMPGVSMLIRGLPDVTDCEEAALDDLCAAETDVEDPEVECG

[11] = molecular target: ATM (Homo sapiens, UniProt Q13315); details: cited from earlier work
[12] = system: Jurkat cells; experiment: Cell cycle histograms (DNA content), 24 h treatment; type: cell-based; details: dCF with 5 μM dA
Procedure: Cells were plated at the density of 0.5 million cells per ml per well in respective media/treatment. After 24 h incubation, cells were harvested and washed with PBS twice before staining with 0.5 ml of propidium iodide (Calbiochem, 1 μg/ml) solution containing Ribonuclease A and 0.3% Triton-X 100. The samples were protected from light before acquisition by flow cytometry.

C[C@@H]1COCCN1c1cc(C2([S@](C)(=N)=O)CC2)nc(-c2cc[nH]c3nccc2-3)n1 [AZD6738]
oral bioavailability [1]: bioavailable)

O=c1[nH]cnc2c([C@@H]3N[C@H](CO)[C@@H](O)[C@H]3O)c[nH]c12 [BCX-1777, Forodesine]
[^15N5]dG in the culture media at the end of incubation ([2]; 18 h, 5 nM BCX-1777, 5 μM [^15N5]dG added): 1.8 µM | increase in dG salvage into dGTP ([2]; 18 h, BCX-1777): over 300 fold | increase of dGTP pools compared to untreated cells ([2]; 18 h, PNP inhibition by BCX-1777): 6 fold

COc1cc(Nc2cnc(C#N)c(O[C@H](C)CN(C)C)n2)ncc1-c1cnn(C)c1 [CCT244747]
IC50 [3]: 0.029 to 0.17 µM | oral bioavailability [1]: bioavailable)

COc1ccc(-c2nc(C(C)Sc3nc(N)cc(N)n3)c(C)s2)cc1OCCNS(C)(=O)=O (centres unmarked) [DI-82, N-(2-(5-(4-(1-((4,6-diaminopyrimidin-2-yl)thio)ethyl)-5-methylthiazol-2-yl)-2-methoxyphenoxy)ethyl)methanesulfonamide]
solubility [4]: < 300 µg/mL | effect on the increased dATP pool level caused by dCF ([5]; 1 μM DI-82 added to dCF): completely reversed | effect on the increased dGTP pool level caused by BCX-1777 ([2]; 1 μM DI-82 added to BCX-1777): completely reversed | effect on cell cycle progression [6]: does not significantly impair cell cycle progression | contribution of dCK to dCTP and DNA-C [7]: completely abrogates | dCTP pool [8]: nearly depleted

CCN1CCC(Oc2c(C#N)ncc3[nH]c4ncccc4c23)CC1 [GDC0425]
oral bioavailability [1]: orally bioavailable

N[C@@H]1CCCN(c2c(Br)cnc3[nH]cc(NC(=O)C4CC4)c23)C1 [GDC0575]
oral bioavailability [1]: orally bioavailable

N#Cc1cc2c(cn1)[nH]c1ncc(-c3ccc(CN4CCCCC4)cc3)cc12 [GNE-900]
IC50 [3]: 0.001 µM

Cc1occc(=O)c1[O-].Cc1occc(=O)c1[O-].Cc1occc(=O)c1[O-].[Ga+3] [Gallium Maltolate]
IC50 ([9]; 3-AP: cell type independent): 30 µM

NC(=O)NO [Hydroxyurea]
IC50 ([9]; 3-AP: cell type independent): 39 µM

Cn1c(=O)n(-c2ccc(C(C)(C)C#N)cc2)c2c3cc(-c4cnc5ccccc5c4)ccc3ncc21 [NVP-BEZ235]
IC50 [10]: 0.021 µM

Cc1cn([C@H]2C[C@H](O)[C@@H](CO)O2)c(=O)[nH]c1=O [Thymidine]
IC50 ([9]; cell type dependent, range printed with two units (μM to mM)): 50 to 5000 µM

CS(=O)(=O)c1ccc(-c2cnc(N)c(C(=O)Nc3ccccc3)n2)cc1 [VE-821]
IC50 [10]: 0.019 µM | IC50 [11]: 34 µM

OC[C@H]1O[C@@H](n2cnc3c2NC=NC[C@H]3O)C[C@@H]1O [dCF, Pentostatin]
reduction of the proportion of cells in G2/M [12]: more than 2 fold | reduction of the proportion of cells in S-phase [12]: 3 fold | [^15N5]dA in the culture media at the end of incubation ([5]; 18 h, 10 μM dCF, 5 μM [^15N5]dA added): 1.5 µM | increase of dATP pools compared to untreated cells ([5]; 18 h, ADA inhibition by dCF): 6 fold | increase in dA salvage into dATP ([5]; 18 h, dCF): over 190 fold
